Results as given in US10294202B2, “Pyrrolidinones as herbicides” (FMC Corporation, priority 2013, dated 2019).

Columns and labels:
giant foxtail = assay: Test A pre-/postemergence herbicide test; assay type: in vivo, Setaria faberii; conditions: for Foxtail, Giant plant response rating: Preemergence, visual rating on 0 to 100 scale (0 no effect, 100 complete control)
Method in brief: (§1)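 Formulated compound (non-phytotoxic solvent, surfactant) sprayed pre- onto soil of seeded loam/sand pots or post- onto seedlings at 1–2 leaves; ~10 d greenhouse; 0–100 visual control rating versus untreated.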

wheat = assay: Test A pre-/postemergence herbicide test; assay type: in vivo, Triticum aestivum; conditions: for Wheat plant response rating: Preemergence, visual rating on 0 to 100 scale (0 no effect, 100 complete control)
Method in brief: as §1

rice = assay: Test B flooded paddy test; assay type: in vivo, Oryza sativa; conditions: 250 g ai/ha, Flood; scale of 0 to 100 where 0 is no effect and 100 is complete control
Method in brief: (§2)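 Plants grown to 2-leaf stage; pots flooded 3 cm above soil and compound applied directly into paddy water, depth held throughout. Visual rating against untreated controls after 13 to 15 days in greenhouse, 0 (no effect) to 100 (complete control).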

ducksalad = assay: Test B flooded paddy test; assay type: in vivo, Heteranthera limosa; conditions: 250 g ai/ha, Flood; scale of 0 to 100 where 0 is no effect and 100 is complete control
Method in brief: as §2

barnyardgrass = assay: Test B flooded paddy test; assay type: in vivo, Echinochloa crus-galli; conditions: 250 g ai/ha, Flood; scale of 0 to 100 where 0 is no effect and 100 is complete control
Method in brief: as §2

blackgrass = assay: Test C pre-/postemergence herbicide test; assay type: in vivo, Alopecurus myosuroides; conditions: Preemergence; for Blackgrass plant response rating: 31 g ai/ha
Method in brief: (§3)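 Compound solutions contained surfactant in a non-phytotoxic solvent. These were sprayed onto pots of loam/sand sown with seeds, and onto young plants (2 to 18 cm, 1- to 4-leaf) in sphagnum peat–vermiculite mix. Visual injury scores (0 none, 100 complete control) were recorded after 13 to 15 days.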

crabgrass, large = assay: Test C pre-/postemergence herbicide test; assay type: in vivo, Digitaria sanguinalis; conditions: Preemergence; for Crabgrass, Large plant response rating: 31 g ai/ha
Method in brief: as §3

lambsquarters = assay: Test C pre-/postemergence herbicide test; assay type: in vivo, Chenopodium album; conditions: Preemergence
Method in brief: as §3

nutsedge, yellow = assay: Test C pre-/postemergence herbicide test; assay type: in vivo, Cyperus esculentus; conditions: Preemergence
Method in brief: as §3

pigweed = assay: Test C pre-/postemergence herbicide test; assay type: in vivo, Amaranthus retroflexus; conditions: Preemergence
Method in brief: as §3

[1] = Postemergence, 125 g ai/ha, 0 to 100 scale, 0 no effect, 100 complete control
[2] = Postemergence, 500 g ai/ha, 0 to 100 scale (0 no effect, 100 complete control)
[3] = preemergence, 500 g ai/ha, 0 to 100 scale
[4] = scale 0 to 100 (0 no effect, 100 complete control)
[5] = 125 g ai/ha, scale 0 to 100 (0 no effect, 100 complete control)
[6] = 250 g ai/ha, scale 0 to 100 (0 no effect, 100 complete control)

O=C1NCC(c2ccc(Cl)c(F)c2)C1C(=O)Nc1ccccc1F (centres unmarked) [Compound 53]
Plant response rating, Foxtail, Giant (giant foxtail; [1]): 30
Plant response rating, Foxtail, Giant (giant foxtail; [2]): 80
Foxtail, Giant plant response rating (giant foxtail; 125 g ai/ha): 90
Plant response rating, Foxtail, Giant (giant foxtail; [3]): 90
Plant response rating, Wheat (wheat; [1]): 0
Plant response rating, Wheat (wheat; [2]): 0
Wheat plant response rating (wheat; 125 g ai/ha): 0
Plant response rating, Wheat (wheat; [3]): 20
Plant response rating, Rice (rice): 0
Plant response rating, Ducksalad (ducksalad): 100
Plant response rating, Barnyardgrass (barnyardgrass): 0
Blackgrass plant response rating (blackgrass; [4]): 0
Plant response rating, Blackgrass (blackgrass; 62 g ai/ha, scale 0 to 100): 0
Plant response rating, Blackgrass (blackgrass; [5]): 0
Plant response rating, Blackgrass (blackgrass; [6]): 0
Crabgrass, Large plant response rating (crabgrass, large; [4]): 80
Plant response rating, Crabgrass, Large (crabgrass, large; 62 g ai/ha, scale 0 to 100): 85
Plant response rating, Crabgrass, Large (crabgrass, large; [5]): 90
Plant response rating, Crabgrass, Large (crabgrass, large; [6]): 90
Plant response rating, Lambsquarters (lambsquarters; 62 g ai/ha, scale 0 to 100): 0
Plant response rating, Lambsquarters (lambsquarters; [5]): 40
Plant response rating, Nutsedge, Yellow (nutsedge, yellow; 62 g ai/ha, scale 0 to 100): 20
Plant response rating, Pigweed (pigweed; 62 g ai/ha, scale 0 to 100): 25
Plant response rating, Pigweed (pigweed; [5]): 25

O=C1NCC(c2ccc(F)c(Cl)c2)C1C(=O)Nc1cccc(F)c1F (centres unmarked) [Compound 59]
Plant response rating, Foxtail, Giant (giant foxtail; [1]): 80
Plant response rating, Foxtail, Giant (giant foxtail; [2]): 80
Foxtail, Giant plant response rating (giant foxtail; 125 g ai/ha): 80
Plant response rating, Foxtail, Giant (giant foxtail; [3]): 90
Plant response rating, Wheat (wheat; [1]): 0
Plant response rating, Wheat (wheat; [2]): 60
Wheat plant response rating (wheat; 125 g ai/ha): 0
Plant response rating, Wheat (wheat; [3]): 0
Plant response rating, Rice (rice): 20
Plant response rating, Ducksalad (ducksalad): 75
Plant response rating, Barnyardgrass (barnyardgrass): 40
Blackgrass plant response rating (blackgrass; [4]): 0
Plant response rating, Blackgrass (blackgrass; 62 g ai/ha, scale 0 to 100): 0
Plant response rating, Blackgrass (blackgrass; [5]): 30
Plant response rating, Blackgrass (blackgrass; [6]): 60
Crabgrass, Large plant response rating (crabgrass, large; [4]): 85
Plant response rating, Crabgrass, Large (crabgrass, large; 62 g ai/ha, scale 0 to 100): 85
Plant response rating, Crabgrass, Large (crabgrass, large; [5]): 90
Plant response rating, Crabgrass, Large (crabgrass, large; [6]): 100
Plant response rating, Lambsquarters (lambsquarters; 62 g ai/ha, scale 0 to 100): 0
Plant response rating, Lambsquarters (lambsquarters; [5]): 0
Plant response rating, Nutsedge, Yellow (nutsedge, yellow; 62 g ai/ha, scale 0 to 100): 0
Plant response rating, Nutsedge, Yellow (nutsedge, yellow; [5]): 0
Plant response rating, Pigweed (pigweed; 62 g ai/ha, scale 0 to 100): 35

O=C1NCC(c2ccc3c(c2)OC(F)(F)O3)C1C(=O)Nc1cccc(F)c1F (centres unmarked) [Compound 62]
Plant response rating, Foxtail, Giant (giant foxtail; [1]): 80
Plant response rating, Foxtail, Giant (giant foxtail; [2]): 80
Foxtail, Giant plant response rating (giant foxtail; 125 g ai/ha): 80
Plant response rating, Foxtail, Giant (giant foxtail; [3]): 90
Plant response rating, Wheat (wheat; [1]): 20
Plant response rating, Wheat (wheat; [2]): 60
Wheat plant response rating (wheat; 125 g ai/ha): 0
Plant response rating, Wheat (wheat; [3]): 0
Plant response rating, Rice (rice): 0
Plant response rating, Ducksalad (ducksalad): 75
Plant response rating, Barnyardgrass (barnyardgrass): 20
Blackgrass plant response rating (blackgrass; [4]): 0
Plant response rating, Blackgrass (blackgrass; 62 g ai/ha, scale 0 to 100): 45
Plant response rating, Blackgrass (blackgrass; [5]): 80
Plant response rating, Blackgrass (blackgrass; [6]): 80
Crabgrass, Large plant response rating (crabgrass, large; [4]): 85
Plant response rating, Crabgrass, Large (crabgrass, large; 62 g ai/ha, scale 0 to 100): 90
Plant response rating, Crabgrass, Large (crabgrass, large; [5]): 95
Plant response rating, Crabgrass, Large (crabgrass, large; [6]): 98
Plant response rating, Lambsquarters (lambsquarters; 62 g ai/ha, scale 0 to 100): 65
Plant response rating, Lambsquarters (lambsquarters; [5]): 70
Plant response rating, Nutsedge, Yellow (nutsedge, yellow; 62 g ai/ha, scale 0 to 100): 10
Plant response rating, Nutsedge, Yellow (nutsedge, yellow; [5]): 20
Plant response rating, Pigweed (pigweed; 62 g ai/ha, scale 0 to 100): 40
Plant response rating, Pigweed (pigweed; [5]): 70

O=C1NCC(c2cccc(Br)c2)C1C(=O)Nc1cccc(F)c1F (centres unmarked) [Compound 64]
Plant response rating, Foxtail, Giant (giant foxtail; [1]): 70
Plant response rating, Foxtail, Giant (giant foxtail; [2]): 80
Foxtail, Giant plant response rating (giant foxtail; 125 g ai/ha): 80
Plant response rating, Foxtail, Giant (giant foxtail; [3]): 90
Plant response rating, Wheat (wheat; [1]): 0
Plant response rating, Wheat (wheat; [2]): 40
Wheat plant response rating (wheat; 125 g ai/ha): 0
Plant response rating, Wheat (wheat; [3]): 0
Plant response rating, Rice (rice): 15
Plant response rating, Ducksalad (ducksalad): 80
Plant response rating, Barnyardgrass (barnyardgrass): 0
Blackgrass plant response rating (blackgrass; [4]): 0
Plant response rating, Blackgrass (blackgrass; 62 g ai/ha, scale 0 to 100): 5
Plant response rating, Blackgrass (blackgrass; [5]): 5
Plant response rating, Blackgrass (blackgrass; [6]): 30
Crabgrass, Large plant response rating (crabgrass, large; [4]): 85
Plant response rating, Crabgrass, Large (crabgrass, large; 62 g ai/ha, scale 0 to 100): 90
Plant response rating, Crabgrass, Large (crabgrass, large; [5]): 95
Plant response rating, Crabgrass, Large (crabgrass, large; [6]): 95
Plant response rating, Lambsquarters (lambsquarters; 62 g ai/ha, scale 0 to 100): 10
Plant response rating, Lambsquarters (lambsquarters; [5]): 30
Plant response rating, Nutsedge, Yellow (nutsedge, yellow; 62 g ai/ha, scale 0 to 100): 20
Plant response rating, Nutsedge, Yellow (nutsedge, yellow; [5]): 20
Plant response rating, Pigweed (pigweed; 62 g ai/ha, scale 0 to 100): 0
Plant response rating, Pigweed (pigweed; [5]): 30
